Measured values from EPA's ToxValDB 9.5 (doi:10.2903/j.efsa.2014.3677).
In brackets after ≈: the same amount, converted by molar mass. Several values for one entry are separate records, joined by “and”; a condition that tells them apart may be missing. Equal values may be shown once.

Assays:
Apis mellifera = conditions: acute, mortality
Bibionidae = conditions: chronic/long-term; duration: 28 days
Canidae = conditions: chronic; duration: 1 years; oral; Dog Other; clinical signs
Colinus virginianus = conditions: acute; oral; diet
Folsomia candida = conditions: chronic/long-term
Hyalella azteca = conditions: acute; duration: 48 hours; mortality
Leuciscus idus = conditions: acute; duration: 96 hours; mortality
Mus musculus = conditions: acute; oral
Neomysis kadiakensis = conditions: chronic/long-term; duration: 28 days
Pimephales promelas = conditions: chronic/long-term; duration: 300 days
Plant = conditions: not reported
Rattus norvegicus = conditions: reproduction developmental; body weight
Aphidius rhopalosiphi = test: LR50; higher = less toxic; conditions: not reported; mortality
Typhlodromus pyri = test: LR50; higher = less toxic; conditions: not reported; mortality

Molecule `CC1(C)[C@H](/C=C(\Cl)C(F)(F)F)[C@@H]1C(=O)O[C@@H](C#N)c1cccc(Oc2ccccc2)c1` [lambda-Cyhalothrin] has an LD50 (Anas platyrhynchos; acute, oral, unspecified) of 3950 mg/kg-day, an NOEC (Anas platyrhynchos; reproductive) of 3.3 mg/kg-day and an LD50 (Apis mellifera; dermal) of 0.038 µg/piece. For the same molecule, the LD50 (Apis mellifera; oral, unspecified) was 0.91 µg/piece, the NOEC (Bibionidae) was 0.13 µg/L and the NOAEL (Canidae) was 0.5 mg/kg-day. For the same molecule, the LD50 (Colinus virginianus) was > 530 mg/kg-day, the NOEC (Folsomia candida) was 2.73 mg/kg and the LC50 (Hyalella azteca) was 0.0019 ng/mL (≈ 0.00422 nM). It also gave an LC50 (Leuciscus idus) of 0.078 ng/mL (≈ 0.173 nM), an LD50 (Mus musculus) of 20 mg/kg-day and an NOEC (Neomysis kadiakensis) of 0.00022 µg/L. For the same molecule, the NOEC (Pimephales promelas) was 0.031 µg/L, the NOEC (Plant) was 7.5 g/ha and the NOAEL (Rattus norvegicus) was 0.5 mg/kg-day and 0.25 mg/kg-day. For the same molecule, the LC50 (Tagia sp.; acute, mortality) was > 500 mg/kg, the NOEC (Tagia sp.; chronic/long-term) was 3.12 mg/kg and the LR50 (Aphidius rhopalosiphi) was 1.06 g/ha. The LR50 (Typhlodromus pyri) was 0.0037 g/ha.
